For one data set, the system named is circulating lymphocytes. The conditions noted are these: animals and man; cited from earlier work.
For data set [1] the following is noted: clinical studies, first 24 hours of treatment; cited from earlier work.
Data set [2] addresses T1, human Endothelial Differentiation G-protein Coupled Receptor 3 (EDG3) (Homo sapiens, UniProt Q99500).
T1 construct: expressed in transfected cells; host or cells: GeneBLAzer Ga15-NFAT-bla HEK 293T cell line
The data set can be described thus: S1P3 GeneBlazer assay. The conditions noted are these: EDG3-Ga15-NFAT-bla HEK 293T cells. Type of data set: cell-based. The protocol:
GeneBLAzer EDG3-Ga15-NFAT-bla HEK 293T cells (contain the human Endothelial Differentiation G-protein Coupled Receptor 3 (EDG3) and a beta-lactamase reporter gene under control of a NFAT response element and a promiscuous G Protein, Ga15, stably integrated into the GeneBLAzer Ga15-NFAT-bla HEK 293T cell line) were suspended in assay medium (99% DMEM, 1% Dialyzed FBS, 0.1 mM NEAA, 25 mM HEPES (pH 7.3), 100 U/ml penicillin, 100 μg/ml streptomycin) at a density of 312, 500 cells/ml. Add 100 μl/well of the assay medium to the cell-free control wells (column 12) and 100 μl/well of the cell suspension to the test compound wells (row 2-8, column 1-10), the unstimulated control wells (DMSO) (column 11), and stimulated control wells (S1P) (row 1, column 1-10) in a Corning black-well, clear bottom 96-well plate. Cells were incubated at 37° C., 5% CO2 for 24 h. […]
After incubation at 37° C., 5% CO2 for 5 h, 25 μl of 6× substrate mixture (6 μl Solution A (1 mg LiveBLAzer™-FRET B/G Substrate (CCF4-AM) in 912 μl DMSO) plus 60 μl Solution B plus 934 μl Solution C) was added to each well and incubate at room temperature for 2 h in dark. The plate was finally read on EnVision for two emission channels (460 nm and 530 nm). […]

The target in data set [3] is T2, human Endothelial Differentiation Gene 1 (EDG1) (Homo sapiens, UniProt P21453).
T2 construct: TEV protease cleavage site; Gal4-VP16 transcription factor (printed Ga14-VP16); expressed in transfected cells; host or cells: Tango GPCR-bla U2OS parental cell line (EDG1-bla/U2OS)
The data set can be described thus: S1P1 Tango assay, 384 well format. The conditions noted are these: EDG1-bla/U2OS cells. Type of data set: cell-based. The protocol: S1P1 Tango Assay—384 Well Format
Recombinant EDG1-bla/U2OS cells (contain the human Endothelial Differentiation Gene 1 (EDG1) linked to a TEV protease site and a Ga14-VP16 transcription factor stably integrated into the Tango GPCR-bla U20S parental cell line) were harvested from growth medium and passaged into assay medium (Invitrogen Freestyle Expression Medium). The cells were starved for 24 hours at 37° C., 5% CO2, harvested and resuspended in assay medium at a density of ˜200,000 cells/ml. All test compounds were dissolved in DMSO at a concentration of 10 mM and were prepared in 100% DMSO to provide 10 point dose response curves. Test compounds prepared by Bravo (Velocity11) were added to wells in columns 2-11 and 13-22; DMSO was added to wells in columns 12 and 23 as unstimulated controls and assay medium was added to wells in columns 1 and 24 as cell-free controls. […]
10 μl of 6× substrate mixture (LiveBLAzer™-FRET B/G substrate (CCF4-AM) Cat # K1096 from Invitrogen, Inc.) was added to each well using Bravo and the plates incubated at room temperature for 2 h in the dark. The plate was finally read on EnVision using one excitation channel (409 nm) and two emission channels (460 nm and 530 nm).
The blue/green emission ratio (460 nm/530 nm) was calculated for each well, by dividing the background-subtracted Blue emission values by the background-subtracted Green emission values. […]

Some results are limits rather than exact numbers.

Results on three molecules are retold here after patent US20120101083A1, “S1P1 AGONISTS COMPRISING A BICYCLIC N-CONTAINING RING” (GLAXO GROUP LIMITED, priority 2009, published 2012).

T1 sequence (Q99500 whole entry): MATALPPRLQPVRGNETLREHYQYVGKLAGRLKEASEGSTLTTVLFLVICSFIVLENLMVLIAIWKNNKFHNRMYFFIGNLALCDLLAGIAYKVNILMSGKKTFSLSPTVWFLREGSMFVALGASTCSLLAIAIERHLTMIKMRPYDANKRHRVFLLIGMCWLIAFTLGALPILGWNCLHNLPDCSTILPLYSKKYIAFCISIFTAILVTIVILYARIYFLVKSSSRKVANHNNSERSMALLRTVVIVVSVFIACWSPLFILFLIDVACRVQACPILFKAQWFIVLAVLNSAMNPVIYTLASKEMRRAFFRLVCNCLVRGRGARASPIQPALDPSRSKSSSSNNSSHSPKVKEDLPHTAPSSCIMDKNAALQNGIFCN
T2 sequence (P21453 whole entry, the tested form may be a part): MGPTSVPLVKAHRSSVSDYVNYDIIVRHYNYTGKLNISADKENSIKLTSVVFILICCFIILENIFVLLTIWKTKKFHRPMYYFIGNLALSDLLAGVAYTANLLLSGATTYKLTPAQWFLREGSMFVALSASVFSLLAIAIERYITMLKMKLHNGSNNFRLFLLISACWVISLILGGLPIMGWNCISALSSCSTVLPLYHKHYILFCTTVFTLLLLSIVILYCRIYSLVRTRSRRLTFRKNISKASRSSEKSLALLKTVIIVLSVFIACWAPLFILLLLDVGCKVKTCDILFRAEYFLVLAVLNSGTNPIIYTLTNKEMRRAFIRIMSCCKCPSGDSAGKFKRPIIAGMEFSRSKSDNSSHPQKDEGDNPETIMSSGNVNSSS

On to `CCCCCCCCc1ccc(CCC(N)(CO)CO)cc1` [FTY720], for which the circulating lymphocytes result in the data set on circulating lymphocytes is “reduce circulating lymphocytes in animals and man”. In data set [1], the bradycardia entry is “bradycardia in the first 24 hours of treatment”.

One may read the EC50 as the concentration giving half of the maximal effect. A high value points to lower potency in that assay. Regarding `CCc1c(-c2nnc(-c3ccc(OC(C)C)c(C#N)c3)s2)ccc2c1CCN(C(CO)CO)C2` [Example 205, 5-(5-{5-ethyl-2-[2-hydroxy-1-(hydroxymethyl)ethyl]-1,2,3,4-tetrahydro-6-isoquinolinyl}-1,3,4-thiadiazol-2-yl)-2-[(1-methylethyl)oxy]benzonitrile], the EC50 in data set [2] was > 10 µM; in data set [3], < 0.1 µM.

As for `CCc1c(-c2cnc(-c3ccc(OC(C)C)c(C#N)c3)s2)ccc2c1CCN(C(CO)CO)C2` [Example 204, 5-(5-{5-ethyl-2-[2-hydroxy-1-(hydroxymethyl)ethyl]-1,2,3,4-tetrahydro-6-isoquinolinyl}-1,3-thiazol-2-yl)-2-[(1-methylethyl)oxy]benzonitrile], the concentration for a half-maximal effect (EC50) in data set [2] was > 10 µM; in data set [3], < 1 µM.
